{"source": "paper PMC8443589", "about": "“Modelling human liver fibrosis in the context of non-alcoholic steatohepatitis using a microphysiological system” (Communications Biology, 2021)", "test_system": "liver MPS NASH model (PHH, KC and HSC co-cultures, high fat)", "test": "Secreted cytokine/biomarker profile (Luminex, ELISA) of liver MPS NASH model dosed with OCA or ELF", "assay_type": "cell-based, human", "method": "Fig. 3 Obeticholic acid and Elafibranor both modulate inflammatory and fibrosis phenotype in liver MPS NASH model and phenotype can additionally be reversed with dietary changes. PHH, KC and HSC co-cultures were cultured in the MPS platform under high fat conditions and dosed with varying concentrations of Obeticholic acid (OCA) and Elafibranor (ELF) QD or vehicle control (control) for 10 days, following an initial 4-day pre-culture phase. a The secreted cytokine profile from liver microtissues was compared by Luminex to determine the effects of each compound on the inflammatory profile of the liver with samples analysed at day 8 and 14 of the culture. Data were normalised by Z-transformation to allow comparison of all analytes and presented as a heatmap. b The expression of fibrosis-associated genes was analysed in total RNA from control, OCA and ELF treated liver microtissues (highest concentration for each compound) using Human Fibrosis RT2 Profiler PCR Arrays. Gene expression changes are expressed as a fold change over control. c Liver microtissues were stained for collagen-type I, α-SMA, nuclei (DAPI - blue), phalloidin (green) and imaged by confocal microscopy. Representative images are shown and scale bars 200 µm. d Staining of microtissue was quantified by measuring total fluorescence intensity throughout individual microtissues, each data point represents an average of all the microtissues imaged within an MPS scaffold (min 8, max 20 microtissues). e PHH, KC and HSC co-cultures were cultured in the MPS platform under high fat or lean conditions for 30 days. Cultures either remained in the same type of media throughout or were switched at day 15 from fat media to lean media (Fat -> Lean). Cell culture medium samples were analysed for the presence of IL-6, f MCP-1, g TIMP-1, which were measured by ELISA. h Microtissues were stained with Oil-Red O to determine fat loading during culture period, total stain was quantified by absorbance at 510 nm. All datapoints shown, either as box-whisker plots highlighting mean and min-max or with error bars highlighting means ± SD. All data from a minimum of three independent cultures; statistical comparisons made to control samples unless other comparison shown.\nSoluble biomarkers in cell culture medium from the MPS were analysed by enzyme-linked immunosorbent assay (ELISA); IL-6 was measured by Human IL-6 DuoSet ELISA (R&D Systems); MCP-1 was measured by Human CCL2/MCP-1 DuoSet ELISA (R&D Systems); pro-collagen 1 was measured by Human Pro-Collagen I α1 DuoSet (R&D Systems); TIMP-1 was measured by Human TIMP-1 Quantikine ELISA Kit (R&D Systems); Fibronectin was measured by Human Fibronectin DuoSet ELISA (R&D Systems); YKL-40 was measured by Human Chitinase 3-like 1 Quantikine ELISA Kit (R&D Systems); Albumin secretion was measured by Human Albumin AssayMax™ ELISA kit (Assay Pro, St. Charles, MO). For all assays, the manufacturer’s protocol was followed.\nCytokine profiles in cell culture medium samples were also analysed by Luminex array for determination of 38 analytes in total, consisting of cytokines, chemokines, and growth factors using the MILLIPLEX MAP Human Cytokine/Chemokine Magnetic Bead Panel - Premixed 38 Plex (Merck Millipore, USA).\nLiver microtissues were cultured for 4 days in HEP-FAT medium, before dosing with obeticholic acid or elafibranor. Both compounds were dissolved in DMSO, diluted in cell culture medium (final DMSO concentration ≤1%) and added to microtissues during a full medium change every two days and in addition on the intervening days compounds were spiked into the media to increase drug concentration back to desired concentrations. Cultures were maintained in the presence of the compound, for a total of 10 days in the presence or absence of TGFβ.", "data": [{"molecule": "CC[C@H]1[C@@H](O)[C@@H]2[C@H](CC[C@]3(C)[C@@H]([C@H](C)CCC(=O)O)CC[C@@H]23)[C@@]2(C)CC[C@@H](O)C[C@@H]12", "note": "[Obeticholic acid]", "values": [{"measurement": "inflammatory cytokines, including CXCL1, IL1-Rα, IL-6 and MCP-1", "setting": "10 days of compound treatment", "value": "concentration-dependent decrease"}, {"measurement": "CXCL1 fold change in production compared to control", "setting": "OCA 0.25 µM QD, D8", "value": 1.039}, {"measurement": "CXCL10 fold change in production compared to control", "setting": "OCA 0.25 µM QD, D8", "value": 1.592}, {"measurement": "FN1 fold change in production compared to control", "setting": "OCA 0.25 µM QD, D8", "value": 1.009}, {"measurement": "IL-1RA fold change in production compared to control", "setting": "OCA 0.25 µM QD, D8", "value": 0.6936}, {"measurement": "IL-4 fold change in production compared to control", "setting": "OCA 0.25 µM QD, D8", "value": 1.307}, {"measurement": "IL-6 fold change in production compared to control", "setting": "OCA 0.25 µM QD, D8", "value": 0.4788}, {"measurement": "IL-8 fold change in production compared to control", "setting": "OCA 0.25 µM QD, D8", "value": 1.109}, {"measurement": "MCP-1 fold change in production compared to control", "setting": "OCA 0.25 µM QD, D8", "value": 1.237}, {"measurement": "MIP-1a fold change in production compared to control", "setting": "OCA 0.25 µM QD, D8", "value": 1.006}, {"measurement": "MIP-1b fold change in production compared to control", "setting": "OCA 0.25 µM QD, D8", "value": 1.009}, {"measurement": "TIMP-1 fold change in production compared to control", "setting": "OCA 0.25 µM QD, D8", "value": 0.957}, {"measurement": "VEGF fold change in production compared to control", "setting": "OCA 0.25 µM QD, D8", "value": 0.3694}, {"measurement": "CXCL1 fold change in production compared to control", "setting": "OCA 0.25 µM QD, D14", "value": 0.7512}, {"measurement": "CXCL10 fold change in production compared to control", "setting": "OCA 0.25 µM QD, D14", "value": 1.289}, {"measurement": "FN1 fold change in production compared to control", "setting": "OCA 0.25 µM QD, D14", "value": 1.087}, {"measurement": "IL-1RA fold change in production compared to control", "setting": "OCA 0.25 µM QD, D14", "value": 0.3915}, {"measurement": "IL-4 fold change in production compared to control", "setting": "OCA 0.25 µM QD, D14", "value": 1.067}, {"measurement": "IL-6 fold change in production compared to control", "setting": "OCA 0.25 µM QD, D14", "value": 0.3892}, {"measurement": "IL-8 fold change in production compared to control", "setting": "OCA 0.25 µM QD, D14", "value": 0.7621}, {"measurement": "MCP-1 fold change in production compared to control", "setting": "OCA 0.25 µM QD, D14", "value": 1.11}, {"measurement": "MIP-1a fold change in production compared to control", "setting": "OCA 0.25 µM QD, D14", "value": 1.483}, {"measurement": "MIP-1b fold change in production compared to control", "setting": "OCA 0.25 µM QD, D14", "value": 1.406}, {"measurement": "TIMP-1 fold change in production compared to control", "setting": "OCA 0.25 µM QD, D14", "value": 0.7667}, {"measurement": "VEGF fold change in production compared to control", "setting": "OCA 0.25 µM QD, D14", "value": 0.2436}, {"measurement": "CXCL1 fold change in production compared to control", "setting": "OCA 5 µM QD, D8", "value": 0.9903}, {"measurement": "CXCL10 fold change in production compared to control", "setting": "OCA 5 µM QD, D8", "value": 1.252}, {"measurement": "FN1 fold change in production compared to control", "setting": "OCA 5 µM QD, D8", "value": 0.9708}, {"measurement": "IL-1RA fold change in production compared to control", "setting": "OCA 5 µM QD, D8", "value": 0.2279}, {"measurement": "IL-4 fold change in production compared to control", "setting": "OCA 5 µM QD, D8", "value": 1.215}, {"measurement": "IL-6 fold change in production compared to control", "setting": "OCA 5 µM QD, D8", "value": 0.3708}, {"measurement": "IL-8 fold change in production compared to control", "setting": "OCA 5 µM QD, D8", "value": 1.325}, {"measurement": "MCP-1 fold change in production compared to control", "setting": "OCA 5 µM QD, D8", "value": 0.9348}, {"measurement": "MIP-1a fold change in production compared to control", "setting": "OCA 5 µM QD, D8", "value": 0.7425}, {"measurement": "MIP-1b fold change in production compared to control", "setting": "OCA 5 µM QD, D8", "value": 0.6949}, {"measurement": "TIMP-1 fold change in production compared to control", "setting": "OCA 5 µM QD, D8", "value": 0.8577}, {"measurement": "VEGF fold change in production compared to control", "setting": "OCA 5 µM QD, D8", "value": 0.4201}, {"measurement": "CXCL1 fold change in production compared to control", "setting": "OCA 5 µM QD, D14", "value": 0.8937}, {"measurement": "CXCL10 fold change in production compared to control", "setting": "OCA 5 µM QD, D14", "value": 1.722}, {"measurement": "FN1 fold change in production compared to control", "setting": "OCA 5 µM QD, D14", "value": 1.05}, {"measurement": "IL-1RA fold change in production compared to control", "setting": "OCA 5 µM QD, D14", "value": 0.2225}, {"measurement": "IL-4 fold change in production compared to control", "setting": "OCA 5 µM QD, D14", "value": 1.3182}, {"measurement": "IL-6 fold change in production compared to control", "setting": "OCA 5 µM QD, D14", "value": 0.3278}, {"measurement": "IL-8 fold change in production compared to control", "setting": "OCA 5 µM QD, D14", "value": 2.0708}, {"measurement": "MCP-1 fold change in production compared to control", "setting": "OCA 5 µM QD, D14", "value": 0.6363}, {"measurement": "MIP-1a fold change in production compared to control", "setting": "OCA 5 µM QD, D14", "value": 0.8372}, {"measurement": "MIP-1b fold change in production compared to control", "setting": "OCA 5 µM QD, D14", "value": 0.7752}, {"measurement": "TIMP-1 fold change in production compared to control", "setting": "OCA 5 µM QD, D14", "value": 0.8205}, {"measurement": "VEGF fold change in production compared to control", "setting": "OCA 5 µM QD, D14", "value": 0.5877}, {"measurement": "CXCL1 fold change in production compared to control", "setting": "OCA 12.5 µM QD, D8", "value": 0.5392}, {"measurement": "CXCL10 fold change in production compared to control", "setting": "OCA 12.5 µM QD, D8", "value": 1.011}, {"measurement": "FN1 fold change in production compared to control", "setting": "OCA 12.5 µM QD, D8", "value": 0.8305}, {"measurement": "IL-1RA fold change in production compared to control", "setting": "OCA 12.5 µM QD, D8", "value": 0.1467}, {"measurement": "IL-4 fold change in production compared to control", "setting": "OCA 12.5 µM QD, D8", "value": 0.6477}, {"measurement": "IL-6 fold change in production compared to control", "setting": "OCA 12.5 µM QD, D8", "value": 0.3353}, {"measurement": "IL-8 fold change in production compared to control", "setting": "OCA 12.5 µM QD, D8", "value": 0.6609}, {"measurement": "MCP-1 fold change in production compared to control", "setting": "OCA 12.5 µM QD, D8", "value": 0.4398}, {"measurement": "MIP-1a fold change in production compared to control", "setting": "OCA 12.5 µM QD, D8", "value": 1.1281}, {"measurement": "MIP-1b fold change in production compared to control", "setting": "OCA 12.5 µM QD, D8", "value": 0.9989}, {"measurement": "TIMP-1 fold change in production compared to control", "setting": "OCA 12.5 µM QD, D8", "value": 1.076}, {"measurement": "VEGF fold change in production compared to control", "setting": "OCA 12.5 µM QD, D8", "value": 0.449}, {"measurement": "CXCL1 fold change in production compared to control", "setting": "OCA 12.5 µM QD, D14", "value": 0.5648}, {"measurement": "CXCL10 fold change in production compared to control", "setting": "OCA 12.5 µM QD, D14", "value": 0.9485}, {"measurement": "FN1 fold change in production compared to control", "setting": "OCA 12.5 µM QD, D14", "value": 0.8335}, {"measurement": "IL-1RA fold change in production compared to control", "setting": "OCA 12.5 µM QD, D14", "value": 0.07151}, {"measurement": "IL-4 fold change in production compared to control", "setting": "OCA 12.5 µM QD, D14", "value": 0.8808}, {"measurement": "IL-6 fold change in production compared to control", "setting": "OCA 12.5 µM QD, D14", "value": 0.05395}, {"measurement": "IL-8 fold change in production compared to control", "setting": "OCA 12.5 µM QD, D14", "value": 1.84}, {"measurement": "MCP-1 fold change in production compared to control", "setting": "OCA 12.5 µM QD, D14", "value": 0.2656}, {"measurement": "MIP-1a fold change in production compared to control", "setting": "OCA 12.5 µM QD, D14", "value": 0.8417}, {"measurement": "MIP-1b fold change in production compared to control", "setting": "OCA 12.5 µM QD, D14", "value": 0.7263}, {"measurement": "TIMP-1 fold change in production compared to control", "setting": "OCA 12.5 µM QD, D14", "value": 0.9472}, {"measurement": "VEGF fold change in production compared to control", "setting": "OCA 12.5 µM QD, D14", "value": 0.5676}]}]}
